Each structure is given as a SMILES string. Values joined by “and” are separate entries in the source; they are usually repeats but may differ in a detail not shown here. Equal entries are not always repeated.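 Results reflect a 48-hour exposure of cells in 96-well plates to compound at five concentrations. The concentration for 50% growth inhibition is given as GI50. TGI: concentration producing complete growth inhibition.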

The source of these data is PubChem BioAssay (NCI).

What all share (assay): NCI tumour cell line growth inhibition, 48 h
In test [1] the test system is SN12C renal.
In test [2] the test system is UACC-257 melanoma.
The subject of test [3] is U251 CNS.
The subject of test [4] is OVCAR-8 ovarian.
Test [5] has as its system HS 578T breast.
Test [6] concerns T-47D breast.
Test [7] deals with COLO 205 colon.
In test [8] the test system is DU-145 prostate.
For test [9], the system named is SK-OV-3 ovarian.
In test [10] the test system is PC-3 prostate.

Consider `OCC1OC(n2cnc3c2NC=NC[C@H]3O)CC1O` (some centres not stated), for which the GI50 in test [1], in [3], in [7] and in [9] was over 588 µM each time. The TGI was 500 µM and > 588 µM in test [1]; 468 µM in [2]; 500 µM and > 588 µM in [3]; 500 µM in [4]; over 500 µM in test [5]; 281 µM in test [6]. The TGI in test [7] is 500 µM and > 588 µM; in [8] it was 500 µM; in [9], 474 µM and > 588 µM; in test [10] it was over 500 µM.

For `CCCCCCCCCCCCCCCCCC(=O)OCC(COC1OC(CS(=O)(=O)O)C(O)C(O)C1O)OC(=O)CCCCCCCCCCCCCCCCC` (configuration not stated), the TGI in [1], in test [2], in test [3], in test [4], in [5] and in test [6] was over 100 µM throughout. Moreover, the TGI in [7], in [8], in test [9] and in test [10] was over 100 µM throughout.

As to `O=S(=O)(CCNCc1ccc(-c2ccc3ncnc(Nc4ccc(OCc5cccc(F)c5)c(Cl)c4)c3c2)o1)c1ccccc1`, the GI50 in test [1] was over 25 µM; in test [2] it was over 25 µM; in [3], over 25 µM; in [4], over 25 µM; in [5] it was over 25 µM; in test [6], 2.21 µM. The GI50 in test [7] was over 25 µM; in [8], over 25 µM; in test [9], 0.349 µM; in test [10], over 25 µM. Further, the TGI in [1], in test [2], in test [3], in test [4], in test [5] and in test [6] was over 25 µM in each case. In addition, the TGI in [7], in test [8], in [9] and in [10] was over 25 µM in each case.

Consider `CCN(CC)CCCCNc1ncc2cc(-c3cc(OC)cc(OC)c3)c(NC(=O)NC(C)(C)C)nc2n1`, for which the GI50 in test [1] is 3.52 µM; in test [2], 1.78 µM; in test [3], 2.77 µM; in test [4], 5.53 µM; in test [5], 4.72 µM; in test [6], 10.8 µM. Moreover, the GI50 in [7] is 8.08 µM; in test [8], 8.08 µM; in [9] it was 4.91 µM; in [10], 7.3 µM. Besides, the TGI is 15.6 µM in test [1]; 3.68 µM in test [2]; 17.5 µM in [3]; 26.6 µM in test [4]; 28 µM in test [5]; 29.3 µM in [6]. Moreover, the TGI was determined as 22.1 µM in [7], 22.9 µM in test [8], 18.2 µM in [9] and 26 µM in test [10].

Turning to `S=C(c1ccc2c(c1)OCO2)N1CCN(c2cccc(Cl)c2)CC1`, the GI50 in [1] was 7.51 µM; in test [3], 0.61 µM; in [4], 0.975 µM; in test [5], 0.391 µM; in [6], 7.31 µM; in test [7] it was 0.706 µM. Moreover, the figures for the GI50 in [8], in test [9] and in test [10] were 2.16 µM, 2.91 µM and 4.08 µM, respectively. Also, the TGI in test [1] was over 100 µM; in test [2], over 21.2 µM; in test [3], over 100 µM; in [4] it was 7.21 µM; in test [5], 3.54 µM; in test [6], over 100 µM. In addition, the TGI was over 55.1 µM in test [8], over 93.9 µM in [9] and over 100 µM in test [10].

For `COC1=CC(c2ccc[nH]2)=N/C1=C\c1[nH]c(C)c(C(C)=O)c1C`, the GI50 in test [1] was 4.46 µM; in test [2], 3.44 µM; in [3] it was 1.19 µM; in test [4], 0.326 µM; in test [5], 0.552 µM; in [6], 2.75 µM. The GI50 is 0.79 µM in test [7], 0.355 µM in [8], over 25.9 µM in test [9] and 0.302 µM in test [10]. Besides, the TGI is over 100 µM in test [1]; over 100 µM in test [2]; over 57.2 µM in test [3]; over 100 µM in test [4]; over 100 µM in [5]; 19.2 µM in test [6]. In addition, the TGI in [7], in test [8], in test [9] and in [10] was over 100 µM throughout.

Regarding `O=C(O)c1ccccc1-c1ccccc1C(=O)Nc1ccc2c(c1)[nH]c(=O)c1ccccc12`, the TGI in [1], in test [2], in test [3], in test [4], in [5] and in [6] was over 100 µM throughout. For the same compound, the TGI in test [7], in test [8], in test [9] and in test [10] was over 100 µM in each case.
